Earlier results as cited in patent US10660869B2, “Lactate powder and method for the preparation thereof” (Purac Biochem B.V., priority 2012, dated 2020).

Conditions: 1000 mg of sample dissolved in 240 ml water

CC(O)C(=O)[O-].CC(O)C(=O)[O-].O.O.O.O.O.[Ca+2] (stereo not shown) [PURACAL® PP/FCC, calcium lactate pentahydrate]
typical dissolution time: 25 s
